Values quoted from earlier work in patent publication US11452751B2, “Medication dispensing system” (priority 2015, dated 2022).

Legend:
[1] = test system: estrogen receptor-positive and estrogen receptor-negative breast cancer cell lines; conditions: inducing apoptosis in a concentration-dependent manner
[2] = test system: nontumorigenic mammary cells
[3] = target: T1, androgen receptor in the prostate gland (Homo sapiens, UniProt P10275)
T1 construct: host or cells: prostate gland
T1 sequence (P10275 1-920): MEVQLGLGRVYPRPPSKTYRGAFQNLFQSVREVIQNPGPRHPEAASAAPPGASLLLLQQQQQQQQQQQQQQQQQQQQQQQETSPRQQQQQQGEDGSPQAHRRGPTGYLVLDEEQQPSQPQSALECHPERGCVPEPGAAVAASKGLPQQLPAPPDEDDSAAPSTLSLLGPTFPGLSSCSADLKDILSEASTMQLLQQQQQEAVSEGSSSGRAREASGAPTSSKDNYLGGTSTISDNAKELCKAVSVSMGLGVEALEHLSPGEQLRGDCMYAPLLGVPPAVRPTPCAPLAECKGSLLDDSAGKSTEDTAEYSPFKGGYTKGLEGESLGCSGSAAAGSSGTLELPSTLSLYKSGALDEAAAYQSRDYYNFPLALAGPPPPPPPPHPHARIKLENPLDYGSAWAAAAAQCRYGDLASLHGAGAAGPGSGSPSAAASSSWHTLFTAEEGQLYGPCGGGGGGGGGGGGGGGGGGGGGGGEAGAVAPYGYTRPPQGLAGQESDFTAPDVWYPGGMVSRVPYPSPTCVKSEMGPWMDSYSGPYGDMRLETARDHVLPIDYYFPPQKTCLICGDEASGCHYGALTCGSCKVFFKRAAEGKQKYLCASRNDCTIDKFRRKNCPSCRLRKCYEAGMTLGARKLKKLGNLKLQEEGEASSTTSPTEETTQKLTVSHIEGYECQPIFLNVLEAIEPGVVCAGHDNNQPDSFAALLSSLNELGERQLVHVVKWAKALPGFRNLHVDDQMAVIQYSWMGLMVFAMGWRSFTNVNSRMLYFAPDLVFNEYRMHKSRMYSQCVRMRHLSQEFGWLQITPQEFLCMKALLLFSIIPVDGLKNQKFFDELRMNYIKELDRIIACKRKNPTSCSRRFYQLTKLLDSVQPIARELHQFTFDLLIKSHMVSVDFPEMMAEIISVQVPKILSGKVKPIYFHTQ

prostate cell line, PC-3 = conditions: Ruiz et al. 1999
CB1 receptor = CB1 receptor (Homo sapiens, UniProt P21554)
[4] = not given; remark: listed apart in the source

CB1 receptor, sequence (P21554 whole entry): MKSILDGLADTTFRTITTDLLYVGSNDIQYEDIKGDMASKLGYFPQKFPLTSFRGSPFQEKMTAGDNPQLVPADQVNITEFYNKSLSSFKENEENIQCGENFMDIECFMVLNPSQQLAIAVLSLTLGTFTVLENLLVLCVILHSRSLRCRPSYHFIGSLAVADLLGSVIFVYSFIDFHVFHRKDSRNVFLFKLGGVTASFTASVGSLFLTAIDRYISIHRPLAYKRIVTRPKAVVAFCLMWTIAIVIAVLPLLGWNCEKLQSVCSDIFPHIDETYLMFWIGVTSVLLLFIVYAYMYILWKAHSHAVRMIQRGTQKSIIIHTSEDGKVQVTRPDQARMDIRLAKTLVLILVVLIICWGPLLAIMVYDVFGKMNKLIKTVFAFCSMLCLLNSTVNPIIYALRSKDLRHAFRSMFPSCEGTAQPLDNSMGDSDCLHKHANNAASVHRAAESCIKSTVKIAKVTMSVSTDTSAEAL

C=C(C)[C@@H]1CCC(C)=C[C@H]1c1c(O)cc(CCCCC)cc1O [CBD, Cannabidiol]
affinity to cannabinoid receptors (cannabinoid receptors): low affinity | survival of breast cancer cell lines [1]: inhibited the survival | effect on nontumorigenic mammary cells [2]: little effect

CCCCCc1cc(O)c2c(c1)OC(C)(C)[C@@H]1CCC(C)=C[C@@H]21 [THC, Tetrahydrocannabinol]
pain sensitivity (cold-pressor test after administration, dronabinol oral capsules 10 mg or 20 mg): decreased pain sensitivity | duration of effects (compared with smoked marijuana): lasted longer than smoked marijuana | time after administration at which pain reduction effects were felt (on the average, cold-pressor test): 180 min | specific binding of dihydroxytestosterone to the androgen receptor [3]: inhibits specific binding | apoptosis (prostate cell line, PC-3): causes apoptosis

CCCc1cc(O)c2c(c1)OC(C)(C)[C@@H]1CCC(C)=C[C@@H]21 [THCV, Tetrahydrocannabivarin]
mode of action at CB1 receptor (CB1 receptor): CB1 receptor antagonist

vitamin E
reduction in breast cancer incidence ([4]; pre-menopausal women with a family history of breast cancer, highest quantity of vitamin E consumed): 43% | risk reduction of breast cancer ([4]; women without a family history of breast cancer): 16%
